Assay results reported in patent US5948791A, “Quinoline derivatives for treating malaria” (Hoffmann-La Roche Inc., priority 1995, dated 1999).
Structures can show the parent of a compound that is named as a salt. Where two headings read alike, the source gives them in different places.

Legend:
[1] = system: Plasmodium falciparum strain NF54; experiment: Growth inhibition of Plasmodium falciparum NF54 (chloroquine-sensitive) in vitro, [G-3H]-hypoxanthin incorporation; format: cell-based; conditions: chloroquine-sensitive strain NF54, 72 h, read-out: IC50 for P. falciparum NF54
Source text: (§1) The ratio of the growth inhibition of a strain which is especially resistant to chloroquine and of a strain which is sensitive to chloroquine gives as the "resistance index" a measurement for the absence of a cross-resistance with chloroquine. Since, for all novel compounds the resistance index lies between 0.7 and 2.5, they inhibit the growth of sensitive as well as resistant strains of the malaria pathogen equally effectively. They are accordingly also suitable for the prophylaxis of a malaria disease and also for the treatment of a malaria disease even when chloroquine is ineffective. The good activity against malaria pathogens is also shown in animal experiments. The effective doses measured after oral and subcutaneous administration to mice infected with malaria pathogens are shown in Table 2 hereinafter.
(§2) Test method for the determination of the activity against Plasmodium falciparum in vitro
(§3) The preparations are tested on intraerythrocytary stages of Plasmodium falciparum from asynchronous cultures according to the method of Desjardin et al. (Desjardins, R. E. et al: Quantitative assessment of antimalarial activity in vitro by a semiautomated microdilution technique. Antimicrob. Agents Chemother. 16, 710-718, (1979)).
(§4) The culture medium consists of RPMI 1640 with the addition of 25 mM HEPES, 25 mM NaHCO3, 100 μg/ml neomycin and […] (A^+). Human-A^+ erythrocytes are used as the Plasmodium falciparum host cells. The parasites are maintained at 37° C. in an atmosphere of 3% O2, 4% CO2, 93% N2 and 95% relative humidity.
(§5) In order to determine the activity, the preparations are dissolved in DMSO, pre-diluted in the culture medium to a suitable starting concentration and subsequently titrated-out on to microtitre plates in the 2nd stage over 6-7 steps. After the addition of the parasite culture (0.7% parasitemia in 2.5% erythrocyte suspension) the test plates are incubated under the conditions given above for 72 h. The parasite growth in the different preparation concentrations is determined using [G-^3 H]-hypoxanthin incorporation compared to untreated control cultures on the same test plates. The 50% growth inhibition (IC50) is calculated according to logit regression analysis from the resulting dosage-activity curve.
(§6) The preparations are tested on at least one chloroquine-resistant and one chloroquine-sensitive Plasmodium falciparum strain. Additional sensitive and resistant strains are included for further characterization.

Plasmodium berghei = experiment: animal or person; format: in vivo, Plasmodium berghei (strain ANKA) in mice; conditions: for inhibition in vivo at 10 mg/kg: Plasmodium berghei, mice, blood smears 48 h after treatment
Method: Test method for the determination of the activity against Plasmodium berghei in vivo
The preparations are tested on mice infected with malaria pathogens (Plasmodium berghei). Male albino mice (IBM:MORO(SPF), FUELLINSDORF) weighing about 25 g are used as the test animals. They are kept in climatized rooms at 21-22° C. in groups of 5 animals per cage. They receive ad libitum a diet feed with a low PABA content (NAFAG FUTTER " No. 9009 PAB-45, PABA content 45 mg/kg) and drinking water. On the first day of the test (D0) the test animals are infected with Plasmodium berghei (strain ANKA). For this there is used heparinized blood of a donor mouse with about 30% parasitemia, which is diluted with physiological saline such that it contains 10^8 parasitized erythrocytes per ml. 0.2 ml of this suspension is injected intravenously (i.v.) into the mice to be treated and into the control mice.
The substances to be tested are dissolved or suspended in distilled water or in a mixture of 7% Tween 80, 3% alcohol (96%) and water. Usually, 0.25 ml of this solution or suspension is administered once subcutaneously and perorally to groups of 5 test animals. Treatment is effected 24 hours after the infection. 10 control animals are treated in the same manner with solvent or suspension medium per test.
All substances are tested in a first test in a single dosage of 10 mg/kg. Only those substances which in this test (10 mg/kg) have shown a parasitaemia reduction of 90% are used for the titration. Suitable dilutions of the test substance can be used to obtain an accurate titration of the activity.
48 hours after the treatment (D+3) blood smears are prepared from all animals using blood from tail veins and are stained with giemsa. […] The difference in the average values of the infection rates of control group (100%) and treated groups is calculated and expressed as a percentage reduction (GI%). The ED50 or ED90 is determined mathematically by means of the JMP programme (nonlinear fit). The ED50 (ED90) in mg/kg is that dose which after single administration reduces the average erythrocyte infection rate by 50% (90%) in comparison to the control group.

Plasmodium falciparum K1 = experiment: Growth inhibition of Plasmodium falciparum K1 (chloroquine-resistant) in vitro, [G-3H]-hypoxanthin incorporation; format: cell-based, Plasmodium falciparum (strain K1); conditions: for IC50: Plasmodium falciparum, K1, 72 h, read-out: IC50 for P. falciparum K1; for Resistance index: ratio of the IC50 for K1 and the IC50 for NF54
Source text: as §1, §2, §3, §4, §5, §6

[2] = po, single peroral dose of 10 mg/kg, read-out: Growth inhibition in % after po administration (GI%, percentage reduction of the parasitemia)
[3] = sc, single subcutaneous dose of 10 mg/kg, read-out: Growth inhibition in % after sc administration (GI%, percentage reduction of the parasitemia)

Structure (SMILES): Cl.Cl.Fc1cccc(F)c1CN[C@H]1CC[C@@H](Nc2ccnc3cc(Cl)ccc23)CC1 [Example 19, cis-N1-(7-Chloro-quinolin-4-yl)-N4-(2,6-difluoro-benzyl)-cyclohexane-1,4-diamine dihydrochloride]
- IC50 [1]: 0.0049 µg/mL
- inhibition in vivo at 10 mg/kg (Plasmodium berghei; [2]): 21%
- Growth inhibition after sc administration: entry "toxic" (Plasmodium berghei; mouse, in vivo, sc, 10 mg/kg): toxic
- IC50 (Plasmodium falciparum K1): 0.0143 µg/mL
- Resistance index (Plasmodium falciparum K1): 2.9

Structure (SMILES): Clc1ccc2c(N[C@H]3CC[C@@H](NCCCc4ccccc4)CC3)ccnc2c1 [Example 20, cis-N1-(7-Chloro-quinolin-4-yl)-N4-(3-phenyl-propyl)-cyclohexane-1,4-diamine dihydrochloride]
- IC50 [1]: 0.0044 µg/mL
- inhibition in vivo at 10 mg/kg (Plasmodium berghei; [2]): 94%
- inhibition in vivo at 10 mg/kg (Plasmodium berghei; [3]): 98%
- IC50 (Plasmodium falciparum K1): 0.0108 µg/mL
- Resistance index (Plasmodium falciparum K1): 2.5

Structure (SMILES): COc1ccc(CN[C@H]2CC[C@@H](Nc3ccnc4cc(Cl)ccc34)CC2)cc1.Cl.Cl [Example 21, cis-N1-(7-Chloro-quinolin-4-yl)-N4-(4-methoxy-benzyl)-cyclohexane-1,4-diamine dihydrochloride]
- IC50 [1]: 0.0051 µg/mL
- inhibition in vivo at 10 mg/kg (Plasmodium berghei; [2]): 99.9%
- inhibition in vivo at 10 mg/kg (Plasmodium berghei; [3]): 100%
- IC50 (Plasmodium falciparum K1): 0.0093 µg/mL
- Resistance index (Plasmodium falciparum K1): 1.8

Structure (SMILES): Cl.Cl.O=[N+]([O-])c1cccc(Cl)c1CN[C@H]1CC[C@@H](Nc2ccnc3cc(Cl)ccc23)CC1 [Example 22, cis-N1-(2-Chloro-6-nitro-benzyl)-N4-(7-chloro-quinolin-4-yl)-cyclohexane-1,4-diamine dihydrochloride]
- IC50 [1]: 0.0116 µg/mL
- inhibition in vivo at 10 mg/kg (Plasmodium berghei; [2]): 42%
- inhibition in vivo at 10 mg/kg (Plasmodium berghei; [3]): 84%
- IC50 (Plasmodium falciparum K1): 0.0189 µg/mL
- Resistance index (Plasmodium falciparum K1): 1.6

Structure (SMILES): CC(C)(CNc1ccnc2cc(Cl)ccc12)NCc1cc(Cl)cc(Cl)c1.Cl.Cl [Example 23, N1-(7-Chloro-quinolin-4-yl)-N2-(3,5-dichloro-benzyl)-2-methylpropane-1,2-diamine dihydrochloride]
- IC50 [1]: 0.0296 µg/mL
- inhibition in vivo at 10 mg/kg (Plasmodium berghei; [2]): 97%
- inhibition in vivo at 10 mg/kg (Plasmodium berghei; [3]): 98%
- IC50 (Plasmodium falciparum K1): 0.0325 µg/mL
- Resistance index (Plasmodium falciparum K1): 1.1

Structure (SMILES): CC(C)(CNc1ccnc2cc(Cl)ccc12)NCc1ccccc1 [Example 24, N1-(7-Chloro-quinolin-4-yl)-N2-(benzyl)-2-methyl-propane-1,2-diamine dihydrochloride]
- IC50 [1]: 0.0079 µg/mL
- inhibition in vivo at 10 mg/kg (Plasmodium berghei; [2]): 81%
- inhibition in vivo at 10 mg/kg (Plasmodium berghei; [3]): 95%
- IC50 (Plasmodium falciparum K1): 0.0132 µg/mL
- Resistance index (Plasmodium falciparum K1): 1.7

Structure (SMILES): CC(C)(CNc1ccnc2cc(Cl)ccc12)NCc1ccc(Cl)cc1 [Example 25, N1-(7-Chloro-quinolin-4-yl)-N2-(4-chloro-benzyl)-2-methyl-propane-1,2-diamine dihydrochloride]
- IC50 [1]: 0.0173 µg/mL
- inhibition in vivo at 10 mg/kg (Plasmodium berghei; [2]): 99.2%
- inhibition in vivo at 10 mg/kg (Plasmodium berghei; [3]): 99.8%
- IC50 (Plasmodium falciparum K1): 0.0129 µg/mL
- Resistance index (Plasmodium falciparum K1): 0.7

Structure (SMILES): CC(C)(CNc1ccnc2cc(Cl)ccc12)NCc1ccc(Cl)c(F)c1.Cl.Cl [Example 27, N1-(7-Chloro-quinolin-4-yl)-N2-(4-chloro-3-fluoro-benzyl)-2-methyl-propane-1,2-diamine dihydrochloride]
- IC50 [1]: 0.016 µg/mL
- inhibition in vivo at 10 mg/kg (Plasmodium berghei; [2]): 99%
- inhibition in vivo at 10 mg/kg (Plasmodium berghei; [3]): 98%
- IC50 (Plasmodium falciparum K1): 0.0233 µg/mL
- Resistance index (Plasmodium falciparum K1): 1.5

Structure (SMILES): CC(=O)O.CC(=O)O.CC(C)(CNc1ccnc2cc(Cl)ccc12)NCc1ccccc1O [Example 28, N1-(7-Chloro-quinolin-4-yl)-N2-(2-hydroxybenzyl)-2-methyl-propane-1,2-diamine diacetate]
- IC50 [1]: 0.004 µg/mL
- inhibition in vivo at 10 mg/kg (Plasmodium berghei; [2]): 79%
- inhibition in vivo at 10 mg/kg (Plasmodium berghei; [3]): 96%
- IC50 (Plasmodium falciparum K1): 0.0107 µg/mL
- Resistance index (Plasmodium falciparum K1): 2.7

Structure (SMILES): COc1ccc(CNC(C)(C)CNc2ccnc3cc(Cl)ccc23)c(O)c1.Cl.Cl [Example 29, N1-(7-Chloro-quinolin-4-yl)-N2-(2-hydroxy-4-methoxy-benzyl)-2-methyl-propane-1,2-diamine dihydrochloride]
- IC50 [1]: 0.0077 µg/mL
- inhibition in vivo at 10 mg/kg (Plasmodium berghei; [2]): 74%
- inhibition in vivo at 10 mg/kg (Plasmodium berghei; [3]): 99%
- IC50 (Plasmodium falciparum K1): 0.0162 µg/mL
- Resistance index (Plasmodium falciparum K1): 2.1

Structure (SMILES): COc1cccc(CNC(C)(C)CNc2ccnc3cc(Cl)ccc23)c1O.Cl.Cl [Example 30, N1-(7-Chloro-quinolin-4-yl)-N2-(2-hydroxy-3-methoxy-benzyl)-2-methyl-propane-1,2-diamine dihydrochloride]
- IC50 [1]: 0.0067 µg/mL
- inhibition in vivo at 10 mg/kg (Plasmodium berghei; [2]): 70%
- inhibition in vivo at 10 mg/kg (Plasmodium berghei; [3]): 95%
- IC50 (Plasmodium falciparum K1): 0.0114 µg/mL
- Resistance index (Plasmodium falciparum K1): 1.7

Structure (SMILES): COc1ccc(O)c(CNC(C)(C)CNc2ccnc3cc(Cl)ccc23)c1.Cl.Cl [Example 31, N1-(7-Chloro-quinolin-4-yl)-N2-(2-hydroxy-5-methoxy-benzyl)-2-methyl-propane-1,2-diamine dihydrochloride]
- IC50 [1]: 0.0065 µg/mL
- inhibition in vivo at 10 mg/kg (Plasmodium berghei; [2]): 39%
- inhibition in vivo at 10 mg/kg (Plasmodium berghei; [3]): 98%
- IC50 (Plasmodium falciparum K1): 0.0099 µg/mL
- Resistance index (Plasmodium falciparum K1): 1.5

Structure (SMILES): COc1cc(CNC(C)(C)CNc2ccnc3cc(Cl)ccc23)ccc1O.Cl.Cl [Example 33, N1-(7-Chloro-quinolin-4-yl)-N2-(4-hydroxy-3-methoxy-benzyl)-2-methyl-propane-1,2-diamine dihydrochloride]
- IC50 [1]: 0.0063 µg/mL
- inhibition in vivo at 10 mg/kg (Plasmodium berghei; [2]): 10%
- inhibition in vivo at 10 mg/kg (Plasmodium berghei; [3]): 97%
- IC50 (Plasmodium falciparum K1): 0.0071 µg/mL
- Resistance index (Plasmodium falciparum K1): 1.1

Structure (SMILES): COc1cc(CNC(C)(C)CNc2ccnc3cc(Cl)ccc23)cc(OC)c1.Cl.Cl [Example 40, N1-(7-Chloro-quinolin-4-yl)-N2-(3,5-dimethoxy-benzyl)-2-methyl-propane-1,2-diamine dihydrochloride]
- IC50 [1]: 0.0036 µg/mL
- inhibition in vivo at 10 mg/kg (Plasmodium berghei; [2]): 84%
- inhibition in vivo at 10 mg/kg (Plasmodium berghei; [3]): 95%
- IC50 (Plasmodium falciparum K1): 0.0071 µg/mL
- Resistance index (Plasmodium falciparum K1): 2.0

Structure (SMILES): CC(C)(CNc1ccnc2cc(Cl)ccc12)NCc1ccc(Oc2ccccc2)cc1.Cl.Cl [Example 43, N1-(7-Chloro-quinolin-4-yl)-N2-(4-phenoxy-benzyl)-2-methyl-propane-1,2-diamine dihydrochloride]
- IC50 [1]: 0.016 µg/mL
- inhibition in vivo at 10 mg/kg (Plasmodium berghei; [2]): 30%
- inhibition in vivo at 10 mg/kg (Plasmodium berghei; [3]): 98%
- IC50 (Plasmodium falciparum K1): 0.0181 µg/mL
- Resistance index (Plasmodium falciparum K1): 1.1

Structure (SMILES): CSc1ccc(CNC(C)(C)CNc2ccnc3cc(Cl)ccc23)cc1.Cl.Cl [Example 44, N1-(7-Chloro-quinolin-4-yl)-N2-(4-methylsulphanyl-benzyl)-2-methyl-propane-1,2-diamine dihydrochloride]
- IC50 [1]: 0.0108 µg/mL
- inhibition in vivo at 10 mg/kg (Plasmodium berghei; [2]): 98%
- inhibition in vivo at 10 mg/kg (Plasmodium berghei; [3]): 99%
- IC50 (Plasmodium falciparum K1): 0.0154 µg/mL
- Resistance index (Plasmodium falciparum K1): 1.4

Structure (SMILES): CN(C)c1ccc(CNC(C)(C)CNc2ccnc3cc(Cl)ccc23)cc1.Cl.Cl [Example 45, N1-(7-Chloro-quinolin-4-yl)-N2-(4-dimethylamino-benzyl)-2-methyl-propane-1,2-diamine dihydrochloride]
- IC50 [1]: 0.0123 µg/mL
- inhibition in vivo at 10 mg/kg (Plasmodium berghei; [2]): 98%
- inhibition in vivo at 10 mg/kg (Plasmodium berghei; [3]): 97%
- IC50 (Plasmodium falciparum K1): 0.0125 µg/mL
- Resistance index (Plasmodium falciparum K1): 1.0
